The term melting point denotes the temperature, or range, at which the solid turns liquid.

Structures can show the parent of a compound that is named as a salt.

For the compound `CC(C)(C)OC(=O)CN1CCC(CCN2CCN(c3cccc(C(F)(F)F)c3)CC2)CC1.Cl.Cl`, the melting point worked out at 245 °C.

`CC(=O)CN1CCC(CCN2CCN(c3ccc(F)c(C#N)c3Cl)CC2)CC1.Cl.Cl`: the melting point is 291 °C.

As for `COc1cccc(N2CCN(CC[C@H]3CC[C@H](NC(=O)CC#N)CC3)CC2)c1.Cl`, the melting point stood at 219 °C.

For the compound `Cl.N#CCC(=O)N[C@H]1CC[C@H](CCN2CCN(c3ccccc3C(F)(F)F)CC2)CC1`, the melting point was 278 °C.

For the compound `CC(=O)CN1CCC(CCN2CCN(c3ccccc3Cl)CC2)CC1.Cl.Cl`, the melting point came out at 265 °C.

Turning to `CC(=O)CN1CCC(CCN2CCN(c3cccc(C#N)c3)CC2)CC1.Cl.Cl`, the melting point amounted to 250 °C.

`CCOC(=O)CN1CCC(CCN2CCN(c3cccc(C(F)(F)F)c3)CC2)CC1.Cl.Cl`: the melting point came out at 240 °C.

In turn, `CC(=O)CN1CCC(CCN2CC=C(c3cccc(C)c3C)CC2)CC1.Cl.Cl` displayed a melting point of 310 °C.

For `COCCNC(=O)C[C@H]1CC[C@H](CCN2CCN(c3cccc(C(F)(F)F)c3)CC2)CC1.Cl`, the melting point worked out at 143 °C.

The compound `Cl.Cl.O=C(CN1CCC(CCN2CCN(c3cccc(C(F)(F)F)c3)CC2)CC1)c1ccc(F)cc1` returned a melting point of 265 °C.

As to `CCc1cccc(C2=CCN(CC[C@H]3CC[C@H](NC(=O)CC#N)CC3)CC2)c1`, the melting point came to 158 °C.

Regarding `CCc1cccc(N2CCN(CCC3CCN(CC(C)=O)CC3)CC2)c1.Cl.Cl`, the melting point was determined as 266 °C.

As to `CC(=O)CN1CCC(CCN2CCN(c3cccc(Cl)c3F)CC2)CC1.Cl.Cl`, the melting point came to 270 °C.

`CC(=O)CN1CCC(CCN2CCN(c3cccc(C)c3)CC2)CC1.Cl.Cl` gave a melting point of 260 °C.

`CC(=O)CN1CCC(CCN2CCN(c3cc(C)cc(C)c3)CC2)CC1.Cl.Cl` gave a melting point of 275 °C.

Compound `CC(=O)CN1CCC(CCN2CCN(c3ccccc3C#N)CC2)CC1.Cl.Cl` registered a melting point of 290 °C.

Compound `CC(=O)CN1CCC(CCN2CCN(c3cccc4ncccc34)CC2)CC1.Cl.Cl` displayed a melting point of 295 °C.

On to `CC(=O)CN1CCC(CCN2CCN(c3cc(C(C)(C)C)cc(C(C)(C)C)c3)CC2)CC1.Cl.Cl`, for which the melting point was found to be 308 °C.

In turn, `COCC(=O)N[C@H]1CC[C@H](CCN2CCN(c3cccc(C(F)(F)F)c3)CC2)CC1.Cl` registered a melting point of 217 °C.

Compound `Cl.N#CCCCC(=O)N[C@H]1CC[C@H](CCN2CCN(c3ccccc3C(F)(F)F)CC2)CC1` registered a melting point of 248 °C.

`CC(=O)CN1CCC(CCN2CCN(c3ccc(F)cc3)CC2)CC1.Cl.Cl` returned a melting point of 270 °C.

Compound `N#CCCCC(=O)N[C@H]1CC[C@H](CCN2CC=C(c3ccc(Cl)cc3)CC2)CC1` gave a melting point of 198 °C.

`CCOCC(=O)N[C@H]1CC[C@H](CCN2CCN(c3cccc(C(F)(F)F)c3)CC2)CC1.Cl` showed a melting point of 184 °C.

Turning to `CC(=O)CN1CCC(CCN2CCN(c3ccc(C)c(C)c3)CC2)CC1.Cl.Cl`, the melting point is 275 °C.

In turn, `COc1c(Cl)cccc1N1CCN(CCC2CCN(CC(C)=O)CC2)CC1.Cl.Cl` registered a melting point of 270 °C.

On to `N#CCC(=O)N[C@H]1CC[C@H](CCN2CC=C(c3ccc(C(F)(F)F)cc3)CC2)CC1`, for which the melting point came to 217 °C.

Turning to `O=C(N[C@H]1CC[C@H](CCN2CC=C(c3ccc(F)cc3F)CC2)CC1)C1=CCCC1`, the melting point stood at 166 °C.

Compound `O=C(N[C@H]1CC[C@H](CCN2CC=C(c3ccccc3F)CC2)CC1)C1=CCCC1` gave a melting point of 192 °C.

Take `CC(=O)CN1CCC(CCN2CCN(c3cccc(C(F)F)c3)CC2)CC1.Cl.Cl`: the melting point was determined as 265 °C.

On to `N#CCCCC(=O)N[C@H]1CC[C@H](CCN2CC=C(c3cccc(C(F)(F)F)c3)CC2)CC1`, for which the melting point came out at 102 °C.

For the compound `CC(=O)C(=O)N1CCC(CCN2CCN(c3cccc4c3CCC4)CC2)CC1.Cl`, the melting point stood at 225 °C.

`CCOc1ccccc1N1CCN(CCC2CCN(CC(C)=O)CC2)CC1.Cl.Cl` registered a melting point of 271 °C.

With `CCC(=O)C(=O)N1CCC(CCN2CCN(c3cccc4c3CCC4)CC2)CC1.Cl`, the melting point stood at 202 °C.

Take `Cc1cc(C)cc(C2=CCN(CC[C@H]3CC[C@@H](NC(=O)CC#N)CC3)CC2)c1.Cl`: the melting point is 220 °C.

`CC(=O)CN1CCC(CCN2CCN(c3ccc(F)c(C(F)(F)F)c3)CC2)CC1.Cl.Cl`: the melting point was determined as 266 °C.

As for `CC(=O)CN1CCC(CCN2CCN(c3cc(Cl)cc(C(F)(F)F)c3)CC2)CC1.Cl.Cl`, the melting point worked out at 289 °C.

Consider `CC(=O)CN1CCC(CCN2CC=C(c3cc(C(F)(F)F)ccc3F)CC2)CC1.Cl.Cl`, for which the melting point was 282 °C.

The compound `CC(=O)CN1CCC(CCN2CCN(c3cccc(OC(C)C)c3)CC2)CC1.Cl.Cl` returned a melting point of 237 °C.

`CC(=O)CN1CCC(CCN2CCN(c3cccc(C(C)(C)C)c3)CC2)CC1.Cl.Cl`: the melting point is 257 °C.

Regarding `N#CCC(=O)N[C@H]1CC[C@H](CCN2CC=C(c3cccc(C#N)c3)CC2)CC1`, the melting point amounted to 185 °C.

Turning to `CC(=O)CN1CCC(CCN2CCN(c3cc(F)c(F)c(F)c3F)CC2)CC1.Cl.Cl`, the melting point came to 235 °C.

Turning to `CC(=O)CN1CCC(CCN2CCN(c3cc(C(F)(F)F)ccc3Cl)CC2)CC1.Cl.Cl`, the melting point was 299 °C.

The compound `CC(=O)CN1CCC(CCN2CCN(c3cc(F)c(C(F)(F)F)c(F)c3)CC2)CC1.Cl.Cl` gave a melting point of 80 °C.

With `CC(=O)CN1CCC(CCN2CCN(c3cc(C(F)(F)F)nc(C(C)(C)C)n3)CC2)CC1.Cl.Cl.Cl`, the melting point is 287 °C.

The compound `CC(=O)CN1CCC(CCN2CCN(c3ccc(Cl)cc3Cl)CC2)CC1.Cl.Cl` displayed a melting point of 283 °C.

As to `COCCCC(=O)N[C@H]1CC[C@H](CCN2CC=C(c3cc(C(F)(F)F)ccc3F)CC2)CC1`, the melting point stood at 164 °C.

As for `CC(=O)CN1CCC(CCN2CCN(c3cc(C)ccc3C)CC2)CC1.Cl.Cl`, the melting point came to 350 °C.

As for `CC(=O)CN1CCC(CCN2CCN(c3cc(C)cc(F)c3)CC2)CC1.Cl.Cl`, the melting point was 273 °C.

Turning to `Cl.N#CCCC(=O)N1CCC(CCN2CC=C(c3cc(C(F)(F)F)ccc3F)CC2)CC1`, the melting point was determined as 150 °C.

For the compound `CCc1ccccc1C1=CCN(CCC2CCN(CC(C)=O)CC2)CC1.Cl.Cl`, the melting point came out at 316 °C.

For `CCc1ccccc1C1=CCN(CC[C@H]2CC[C@H](NC(=O)CCCC#N)CC2)CC1`, the melting point came out at 120 °C.

In turn, `CC(=O)CN1CCC(CCN2CCN(c3cccc(CC(C)C)c3)CC2)CC1.Cl.Cl` showed a melting point of 240 °C.

Regarding `COCCCC(=O)N[C@H]1CC[C@H](CCN2CC=C(c3ccc(F)cc3)CC2)CC1`, the melting point was 201 °C.

The compound `N#CCC(=O)N[C@H]1CC[C@H](CCN2CC=C(c3cccc(C(F)(F)F)c3)CC2)CC1` had a melting point of 149 °C.

The compound `N#CCC(=O)CN1CCC(CCN2CCN(c3cccc(C(F)(F)F)c3)CC2)CC1` (as salt: hydrochloride) returned a melting point of 160 °C.

Regarding `CC(=O)CN1CCC(CCN2CCN(c3cccc(Cl)c3Cl)CC2)CC1` (as salt: hydrochloride) [Example 737, 1-(4-{2-[4-(2,3-Dichlorophenyl)piperazin-1-yl]ethyl}piperidin-1-yl)propan-2-one, dihydrochloride], the melting point is 281 °C.

As to `CNC(=O)CC1CCC(CCN2CCN(c3cccc(C(F)(F)F)c3)CC2)CC1` (mixture of isomers) [Example 295, N-Methyl-2-(4-{2-[4-(3-trifluoromethylphenyl)piperazin-1-yl]ethyl}cyclohexyl)acetamide cis/trans 50/50], the melting point turned out to be 196 °C.

`Cl.Cl.N#Cc1cccc(N2CCN(CC[C@H]3CC[C@H](NC(=O)[C@@H]4CCCN4)CC3)CC2)c1` (stereo in doubt): the melting point worked out at 314 °C.

Compound `Cl.Cl.O=C(N[C@H]1CC[C@H](CCN2CCN(c3cc(C(F)(F)F)ccc3F)CC2)CC1)[C@@H]1CCCN1` (stereo in doubt) showed a melting point of 274 °C.

With `Cl.Cl.O=C(N[C@H]1CC[C@H](CCN2CCN(c3ccc(F)cc3F)CC2)CC1)[C@@H]1CCCN1` (stereo in doubt), the melting point turned out to be 260 °C.

With `CO[C@H](C)C(=O)N[C@H]1CC[C@H](CCN2CCN(c3ccccc3F)CC2)CC1` (stereo in doubt) [Example 75, N-(4-{2-[4-(2-Fluorophenyl)-piperazin-1-yl]ethyl}cyclohexyl)-2-methoxypropanamide], the melting point is 162 °C.

As for `N#C[C@@H]1CC1C(=O)N[C@H]1CC[C@H](CCN2CCN(c3cccc(C(F)(F)F)c3)CC2)CC1` (stereo in doubt) [Example 324, 2-Cyano-cyclopropanecarboxylic acid (4-{2-[4-(3-trifluoromethylphenyl)piperazin-1-yl]ethyl}cyclohexyl) amide], the melting point stood at 159 °C.

The compound `CC(=O)c1cccc(N2CCN(CC[C@H]3CC[C@H](NC(=O)CC#N)CC3)CC2)c1` [Example 7, N-(4-{2-[4-(3-acetylphenyl)piperazin-1-yl]ethyl}cyclohexyl)-2-cyanoacetamide trans/cis 80/20] came in with a melting point of 160 °C.

The compound `CC(=O)CN1CCC(CCN2CCN(c3cccc(Cl)c3Cl)CC2)CC1` [Example 21, 1-(4-{2-[4-(2,3-Dichlorophenyl)piperazin-1-yl]ethyl}piperidin-1-yl)propan-2-one] had a melting point of 87 °C.

The compound `CC(=O)CN1CCC(CCN2CCN(c3cccc(Cl)c3)CC2)CC1` [Example 29, 1-(4-{2-[4-(3-Chlorophenyl)-piperazin-1-yl]ethyl}piperidin-1-yl)propan-2-one] registered a melting point of 114 °C.

Compound `O=C(N[C@H]1CC[C@H](CCN2CCN(c3cccc(C(F)(F)F)c3)CC2)CC1)C(F)(F)F` [Example 38, 2,2,2-Trifluoro-N-(4-{2-[4-(3-trifluoromethylphenyl)piperazin-1-yl]ethyl}cyclohexyl)acetamide] displayed a melting point of 134 °C.

The compound `COC(=O)N[C@H]1CC[C@H](CCN2CCN(c3cccc(C(F)(F)F)c3)CC2)CC1` [Example 39, (4-{2-[4-(3-Trifluoromethyl-phenyl)piperazin-1-yl]ethyl}cyclo-hexyl)carbamic acid methyl ester] showed a melting point of 135 °C.

Source of the values: US8802678B2, “Carbonylated (aza) cyclohexanes as dopamine D3 receptor ligands” (Bioprojet, priority 2006, dated 2014).
